Consider six molecules from ChEMBL document CHEMBL3244121, “Esters of 4-[3-[2-(trifluoromethyl)phenothiazin-10-yl]propyl]-1-piperazieneethanol and related compounds as long-acting antipsychotic agents. Synthesis of the 1-adamantoate, the first crystalline base” (1977).

The subject of the assay is Rattus norvegicus. The experiment in a line: Antipsychotic activity in albino rat assessed as duration of inhibition of conditioned avoidance behavior at 25 mg/kg administered intramuscularly. To be noted: route intramuscular. Format: functional.
As for `CCCCCCCCCCCC(=O)OCCN1CCN(CCCN2c3ccccc3Sc3ccc(C(F)(F)F)cc32)CC1.Cl`, the Time worked out at 28 days.

As to `CCCCCC(=O)OCCN1CCN(CCCN2c3ccccc3Sc3ccc(C(F)(F)F)cc32)CC1.Cl`, the Time turned out to be 8 days.

For the molecule `CCCCCCC(=O)OCCN1CCN(CCCN2c3ccccc3Sc3ccc(C(F)(F)F)cc32)CC1` [FLUPHENAZINE ENANTHATE], the Time came to 28 days.

For `CC(C)CCC(=O)OCCN1CCN(CCCN2c3ccccc3Sc3ccc(C(F)(F)F)cc32)CC1.Cl`, the Time turned out to be 8 days.

For `CCCCCCCCCCCCCC(=O)OCCN1CCN(CCCN2c3ccccc3Sc3ccc(C(F)(F)F)cc32)CC1.Cl`, the Time was 28 days.

As to `CCCCCCCCCC(=O)OCCN1CCN(CCCN2c3ccccc3Sc3ccc(C(F)(F)F)cc32)CC1` [FLUPHENAZINE DECANOATE], the Time came to 12 days.
